In patent US8003604B2, “Hepatitis C virus inhibitors” (priority 2006, dated 2011) one finds EC50 and IC50 data, which are given here for two compounds.

Assay [1] relates to HCV replicon in HUH-7 cells. Briefly: HCV replicon FRET assay (confirmed in replicon luciferase reporter assay). The assay is classed as cell-based. The following applies: Hepatitis C virus, 96 h; HUH-7 cells constitutively expressing HCV 1b replicon, 4 days incubation. The source says:
An HCV replicon whole cell system was established as described by Lohmann V, Korner F, Koch J, Herian U, Theilmann L, Bartenschlager R., Science 285(5424):110-3 (1999). This system enabled us to evaluate the effects of our HCV Protease compounds on HCV RNA replication. Briefly, using the HCV strain 1b sequence described in the Lohmann paper (Accession number: AJ238799), an HCV cDNA was synthesized by Operon Technologies, Inc. (Alameda, Calif.), and the full-length replicon was then assembled in plasmid pGem9zf(+) (Promega, Madison, Wis.) using standard molecular biology techniques. […]
The HCV replicon FRET assay was developed to monitor the inhibitory effects of compounds described in the disclosure on HCV viral replication. […] After 4 days, cells were first assessed for cytotoxicity using alamar Blue (Trek Diagnotstic Systems) for a CC50 reading. The toxicity of compound (CC50) was determined by adding 1/10th volume of alamar Blue to the media incubating the cells. After 4 h, the fluorescence signal from each well was read, with an excitation wavelength at 530 nm and an emission wavelength of 580 nm, using the Cytofluor Series 4000 (Perspective Biosystems). […]

Assay [2] deals with T1, HCV NS3/4A protease complex (Hepatitis C virus genotype 1a, UniProt P27958, C1454S/C1711G).
T1 construct: DNA encoding the recombinant HCV NS3/4A protease complex (amino acids 1027 to 1711) for these strains were manipulated; inferred from pET21b vector and Ni-NTA purification; made in house; host or cells: Escherichia coli BL21 (DE3), pET21b vector
T1 sequence (P27958 1027-1711 C1454S/C1711G, one chain of several): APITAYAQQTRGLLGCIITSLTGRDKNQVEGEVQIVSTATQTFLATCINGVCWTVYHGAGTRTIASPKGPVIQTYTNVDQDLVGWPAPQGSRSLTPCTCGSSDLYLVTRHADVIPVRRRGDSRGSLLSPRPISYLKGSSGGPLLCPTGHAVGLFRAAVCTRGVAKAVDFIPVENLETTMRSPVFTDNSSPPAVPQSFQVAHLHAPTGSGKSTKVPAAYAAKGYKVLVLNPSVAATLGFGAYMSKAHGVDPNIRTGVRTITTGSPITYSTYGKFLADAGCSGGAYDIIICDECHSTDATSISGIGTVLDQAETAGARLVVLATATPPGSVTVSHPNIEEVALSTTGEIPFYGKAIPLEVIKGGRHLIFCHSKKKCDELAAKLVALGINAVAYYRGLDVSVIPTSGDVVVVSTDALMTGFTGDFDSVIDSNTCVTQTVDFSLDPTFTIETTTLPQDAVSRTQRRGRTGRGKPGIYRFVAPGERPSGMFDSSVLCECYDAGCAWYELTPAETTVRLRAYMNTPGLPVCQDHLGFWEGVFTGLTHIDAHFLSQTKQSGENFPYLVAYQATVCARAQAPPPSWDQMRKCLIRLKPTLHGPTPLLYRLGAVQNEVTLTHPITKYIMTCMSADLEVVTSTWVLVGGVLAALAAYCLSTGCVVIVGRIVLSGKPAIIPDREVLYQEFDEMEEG
Put plainly: FRET peptide assay to monitor HCV NS3/4A proteolytic activity. Format: biochemical. The source says:
HCV NS3 protease complexes, derived from the BMS strain, H77 strain or J4L6S strain, were generated, as described below. These purified recombinant proteins were generated for use in a homogeneous assay (see below) to provide an indication of how effective compounds of the present disclosure would be in inhibiting HCV NS3 proteolytic activity.
Serum from an HCV-infected patient was obtained from Dr. T. Wright, San Francisco Hospital. An engineered full-length cDNA (compliment deoxyribonucleic acid) template of the HCV genome (BMS strain) was constructed from DNA fragments obtained by reverse transcription-PCR (RT-PCR) of serum RNA (ribonucleic acid) and using primers selected on the basis of homology between other genotype 1a strains. From the determination of the entire genome sequence, a genotype 1a was assigned to the HCV isolate according to the classification of Simmonds et al. (See P Simmonds, K A Rose, S Graham, S W Chan, F McOmish, B C Dow, E A Follett, P L Yap and H Marsden, J. Clin. Microbiol., 31(6), 1493-1503 (1993)). […]

For the compound `CC(C)(C)OC(=O)N[C@H]1CCCCC/C=C\C2C[C@@]2(C(=O)NS(=O)(=O)C2CC2)NC(=O)[C@@H]2C[C@@H](c3ccccc3)CN2C1=O` (stereo partly shown) [Compound 1], the EC50 (as a rule, the concentration that produces a half-maximal response) in assay [1] stood at 639 nM. In addition, the IC50 (commonly the concentration that inhibits the measured activity by half) in assay [2] is 18 nM.

Consider `CC(C)(C)OC(=O)N[C@H]1CCCCC/C=C\[C@@H]2C[C@@]2(C(=O)NS(=O)(=O)C2CC2)NC[C@@H]2C[C@@](O)(c3ccccc3)CN2C1=O` [Compound 2], for which, in assay [1], the response was half-maximal at 389 nM (EC50). The same compound showed an IC50 in assay [2] of 9 nM.
